These are literature values, as cited in US9597313B2 (priority 2006, dated 2017).

For the data set, the system named is aflatoxin-N7-guanine adducts. Particulars: 100 mg chlorophyllin three times a day for four months.

On to chlorophyllin, for which the “Reduction in median urinary levels of aflatoxin-N7-guanine adducts compared with placebo” value is given as 55%.
